Measurements: ChEMBL document CHEMBL5321234, “Discovery of Thieno[3,2-d]pyrimidine derivatives as potent and selective inhibitors of ataxia telangiectasia mutated and Rad3 related (ATR) kinase” (Eur J Med Chem, 2023)

What was measured:
[1] = target: Serine/threonine-protein kinase ATR (Homo sapiens, UniProt Q13535); test: Inhibition of ATR (unknown origin)
[2] = system: LoVo; test: Antiproliferative activity against human LoVo cells incubated for 72 hrs by CCK-8 assay; type: functional, cell-based
[3] = Cmax in ICR mouse at 10 mg/kg, po measured upto 24 hrs by LC-MS/MS analysis; type: ADME, organism-based; set-up: time < 24 hrs, dose 10 mg/kg, route po; details: in vivo
[4] = Cmax in ICR mouse at 1 mg/kg, iv measured upto 24 hrs by LC-MS/MS analysis; type: ADME, organism-based; set-up: time < 24 hrs, dose 1 mg/kg, route iv; details: in vivo
[5] = MRT (0 to infinity) in ICR mouse at 1 mg/kg, iv measured upto 24 hrs by LC-MS/MS analysis; type: ADME, organism-based; details: ICR, in vivo
[6] = AUC (0 to t) in ICR mouse at 10 mg/kg, po measured upto 24 hrs by LC-MS/MS analysis; type: ADME, organism-based; set-up: dose 10 mg/kg, time < 24 hrs, route po; details: in vivo
[7] = Tmax in ICR mouse at 1 mg/kg, iv measured upto 24 hrs by LC-MS/MS analysis; type: ADME, organism-based; details: in vivo
[8] = AUC (0 to infinity) in ICR mouse at 1 mg/kg, iv measured upto 24 hrs by LC-MS/MS analysis; type: ADME, organism-based; set-up: dose 1 mg/kg, time < 24 hrs, route iv; details: in vivo
[9] = AUC (0 to infinity) in ICR mouse at 10 mg/kg, po measured upto 24 hrs by LC-MS/MS analysis; type: ADME, organism-based; set-up: dose 10 mg/kg, time < 24 hrs, route po; details: in vivo
[10] = Volume of distribution at steady state in ICR mouse at 1 mg/kg, iv measured upto 24 hrs by LC-MS/MS analysis; type: ADME, organism-based; details: ICR, in vivo, read-out: Vdss
[11] = Clearance in ICR mouse at 1 mg/kg, iv measured upto 24 hrs by LC-MS/MS analysis; type: ADME, organism-based; details: ICR, in vivo
[12] = MRT (0 to t) in ICR mouse at 10 mg/kg, po measured upto 24 hrs by LC-MS/MS analysis; type: ADME, organism-based; details: in vivo
[13] = Half life in ICR mouse at 1 mg/kg, iv measured upto 24 hrs by LC-MS/MS analysis; type: ADME, organism-based; details: in vivo
[14] = MRT (0 to infinity) in ICR mouse at 10 mg/kg, po measured upto 24 hrs by LC-MS/MS analysis; type: ADME, organism-based; details: in vivo
[15] = MRT (0 to t) in ICR mouse at 1 mg/kg, iv measured upto 24 hrs by LC-MS/MS analysis; type: ADME, organism-based; details: in vivo
[16] = Initial plasma concentration in ICR mouse at 1 mg/kg, iv measured upto 24 hrs by LC-MS/MS analysis; type: ADME, organism-based
[17] = Half life in ICR mouse at 10 mg/kg, po measured upto 24 hrs by LC-MS/MS analysis; type: ADME, organism-based; details: in vivo
[18] = Tmax in ICR mouse at 10 mg/kg, po measured upto 24 hrs by LC-MS/MS analysis; type: ADME, organism-based; details: in vivo
[19] = AUC (0 to t) in ICR mouse at 1 mg/kg, iv measured upto 24 hrs by LC-MS/MS analysis; type: ADME, organism-based; set-up: dose 1 mg/kg, time < 24 hrs, route iv; details: in vivo
[20] = Oral bioavailability in ICR mouse at 10 mg/kg measured upto 24 hrs by LC-MS/MS analysis; type: ADME, organism-based; details: in vivo
[21] = system: HT-29; test: Antiproliferative activity against human HT-29 cells incubated for 72 hrs by CCK-8 assay; type: functional, cell-based; details: HT-29, 72 h
[22] = system: LoVo; test: Antitumor activity against human LoVo cells xenografted in BALB/c mouse assessed as tumor growth inhibition at 50 mg/kg, po bid 3 days on/4 days off administered for 21 consecutive days relative to control; type: functional; details: 504 h, time 21 day, read-out: TGI

Serine/threonine-protein kinase ATR, sequence (Q13535 whole entry): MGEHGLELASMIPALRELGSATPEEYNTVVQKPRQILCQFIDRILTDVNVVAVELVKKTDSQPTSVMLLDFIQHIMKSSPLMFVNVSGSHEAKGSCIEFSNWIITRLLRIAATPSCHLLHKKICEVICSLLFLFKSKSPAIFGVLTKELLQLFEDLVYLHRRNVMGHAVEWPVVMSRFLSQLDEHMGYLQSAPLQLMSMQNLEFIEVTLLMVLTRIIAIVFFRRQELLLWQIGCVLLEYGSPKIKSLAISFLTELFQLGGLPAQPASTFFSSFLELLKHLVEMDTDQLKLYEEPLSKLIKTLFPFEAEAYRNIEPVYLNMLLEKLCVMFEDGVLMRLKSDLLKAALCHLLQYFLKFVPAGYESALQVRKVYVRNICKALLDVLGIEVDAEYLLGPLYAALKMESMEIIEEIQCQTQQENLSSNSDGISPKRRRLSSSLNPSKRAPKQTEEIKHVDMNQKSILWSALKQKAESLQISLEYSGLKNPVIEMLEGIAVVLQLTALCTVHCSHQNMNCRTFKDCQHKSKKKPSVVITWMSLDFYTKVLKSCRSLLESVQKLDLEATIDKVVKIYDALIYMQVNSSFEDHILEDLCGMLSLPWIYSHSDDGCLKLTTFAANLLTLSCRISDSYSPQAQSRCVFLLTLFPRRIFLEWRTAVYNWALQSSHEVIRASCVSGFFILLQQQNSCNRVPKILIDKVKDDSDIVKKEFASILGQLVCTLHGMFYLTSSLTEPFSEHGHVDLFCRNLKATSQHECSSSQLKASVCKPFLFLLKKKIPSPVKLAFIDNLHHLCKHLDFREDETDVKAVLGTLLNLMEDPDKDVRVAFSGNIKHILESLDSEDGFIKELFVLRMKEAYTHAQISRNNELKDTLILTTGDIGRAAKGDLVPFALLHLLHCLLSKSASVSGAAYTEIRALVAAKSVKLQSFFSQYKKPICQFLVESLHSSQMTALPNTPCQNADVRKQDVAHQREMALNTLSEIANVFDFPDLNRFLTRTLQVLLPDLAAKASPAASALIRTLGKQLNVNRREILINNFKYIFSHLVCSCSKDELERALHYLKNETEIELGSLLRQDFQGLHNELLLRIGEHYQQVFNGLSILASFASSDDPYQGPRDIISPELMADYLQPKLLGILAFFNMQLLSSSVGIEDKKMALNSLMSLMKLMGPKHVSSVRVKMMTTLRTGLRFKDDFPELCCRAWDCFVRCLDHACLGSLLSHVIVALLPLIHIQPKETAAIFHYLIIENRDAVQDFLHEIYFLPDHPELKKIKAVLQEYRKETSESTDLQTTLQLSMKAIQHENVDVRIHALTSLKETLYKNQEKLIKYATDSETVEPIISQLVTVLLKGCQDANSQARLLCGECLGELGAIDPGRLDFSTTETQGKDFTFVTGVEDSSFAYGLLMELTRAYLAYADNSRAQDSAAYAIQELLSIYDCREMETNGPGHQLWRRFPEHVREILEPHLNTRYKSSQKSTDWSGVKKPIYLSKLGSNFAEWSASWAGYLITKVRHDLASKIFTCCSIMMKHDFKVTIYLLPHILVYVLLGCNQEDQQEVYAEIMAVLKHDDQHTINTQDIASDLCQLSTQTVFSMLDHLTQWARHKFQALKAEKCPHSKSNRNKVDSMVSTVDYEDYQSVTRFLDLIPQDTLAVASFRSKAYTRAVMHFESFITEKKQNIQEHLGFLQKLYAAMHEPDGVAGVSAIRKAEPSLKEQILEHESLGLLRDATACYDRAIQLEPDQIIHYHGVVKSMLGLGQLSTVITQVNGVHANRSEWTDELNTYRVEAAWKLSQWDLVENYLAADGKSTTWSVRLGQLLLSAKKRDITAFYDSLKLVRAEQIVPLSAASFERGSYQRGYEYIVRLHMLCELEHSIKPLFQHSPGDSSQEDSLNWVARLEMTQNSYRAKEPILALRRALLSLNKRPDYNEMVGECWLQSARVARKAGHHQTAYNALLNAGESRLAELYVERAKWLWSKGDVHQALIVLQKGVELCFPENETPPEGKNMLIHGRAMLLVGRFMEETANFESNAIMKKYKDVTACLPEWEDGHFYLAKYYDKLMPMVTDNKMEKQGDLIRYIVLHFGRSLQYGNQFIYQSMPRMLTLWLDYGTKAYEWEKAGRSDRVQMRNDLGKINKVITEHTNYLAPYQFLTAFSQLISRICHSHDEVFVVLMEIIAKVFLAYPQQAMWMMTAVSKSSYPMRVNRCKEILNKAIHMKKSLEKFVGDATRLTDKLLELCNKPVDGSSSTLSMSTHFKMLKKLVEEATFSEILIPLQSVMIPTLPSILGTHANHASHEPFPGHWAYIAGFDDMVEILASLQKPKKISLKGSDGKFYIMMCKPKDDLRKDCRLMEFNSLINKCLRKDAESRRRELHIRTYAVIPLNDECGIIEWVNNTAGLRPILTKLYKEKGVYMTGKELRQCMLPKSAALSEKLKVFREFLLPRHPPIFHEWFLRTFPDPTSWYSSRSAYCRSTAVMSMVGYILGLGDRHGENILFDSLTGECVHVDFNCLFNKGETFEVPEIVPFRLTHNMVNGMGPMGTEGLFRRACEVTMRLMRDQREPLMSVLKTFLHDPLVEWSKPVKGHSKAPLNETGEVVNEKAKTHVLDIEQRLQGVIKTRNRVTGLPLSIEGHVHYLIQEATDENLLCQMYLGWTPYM

| SMILES | IC50 [1] | IC50 [2] | further results |
| --- | --- | --- | --- |
| C[C@@H]1COCCN1c1nc(-c2ccnc3[nH]ccc23)nc2c(S(C)(=N)=O)csc12 (stereo partly specified) | 5.4 nM | 398 nM |  |
| C[C@@H]1COCCN1c1nc(-n2c(N)nc3c(F)cccc32)nc2c(S(C)(=O)=O)csc12 | 2 nM | 381 nM |  |
| C[C@@H]1COCCN1c1nc(-c2cc(C(F)(F)F)cc3[nH]ccc23)nc2c(S(C)(=O)=O)csc12 | 2.9 nM | 527 nM |  |
| C[C@@H]1COCCN1c1nc(-n2c(C(F)F)nc3ccccc32)nc2c(S(C)(=O)=O)csc12 | 2.8 nM | 177 nM |  |
| C[C@@H]1COCCN1c1nc(-c2cccc3c2CCN3)nc2c(S(C)(=O)=O)csc12 | 59.2 nM | 1890 nM |  |
| C[C@@H]1COCCN1c1nc(-n2c(N(C)C)nc3ccccc32)nc2c(S(C)(=O)=O)csc12 | 233 nM |  |  |
| Cc1nc2ccccc2n1-c1nc(N2CCOC[C@H]2C)c2scc(S(C)(=O)=O)c2n1 | 3.5 nM | 635 nM |  |
| CC(=O)c1csc2c(N3CCOC[C@H]3C)nc(-c3ccnc4[nH]ccc34)nc12 | 35.3 nM | 931 nM |  |
| CSc1nc2ccccc2n1-c1nc(N2CCOC[C@H]2C)c2scc(S(C)(=O)=O)c2n1 | 113 nM |  |  |
| CNc1nc2ccccc2n1-c1nc(N2CCOC[C@H]2C)c2scc(S(=O)(=O)C3CC3)c2n1 | 2.8 nM | 107 nM |  |
| CNc1nc2ccccc2n1-c1nc(N2CCOC[C@H]2C)c2scc(S(=O)(=O)C(C)C)c2n1 | 5.7 nM | 224 nM |  |
| CNc1nc2ccccc2n1-c1nc(N2CCOC[C@H]2C)c2scc(SC)c2n1 | 24.2 nM | 1500 nM |  |
| C[C@@H]1COCCN1c1nc(-c2cccc3[nH]ccc23)nc2c(S(C)(=O)=O)csc12 | 3.1 nM | 266 nM |  |
| C[C@@H]1COCCN1c1nc(-c2ccnc3[nH]ccc23)nc2c(S(C)(=O)=O)csc12 | 5.8 nM | 111 nM |  |
| C[C@@H]1COCCN1c1nc(-c2cccc3[nH]ncc23)nc2c(S(C)(=O)=O)csc12 | 9.6 nM | 391 nM |  |
| CNc1nc2ccccc2n1-c1nc(N2CCOC[C@H]2C)c2scc(P(C)(C)=O)c2n1 | 6.2 nM | 113 nM |  |
| C[C@@H]1COCCN1c1nc(-c2cccc3c2CC(=O)N3)nc2c(S(C)(=O)=O)csc12 | 159 nM |  |  |
| C[C@@H]1COCCN1c1nc(-c2ccnc3[nH]ccc23)nc2c(C#N)csc12 | 52.6 nM | 2510 nM |  |
| CC(C)n1c(=O)n(C)c2cnc3cc(F)c(-c4ccc(OCCCN5CCCCC5)nc4)cc3c21 [AZD-1390] |  |  | IC50 [21]: > 10000 nM |
| C[C@@H]1COCCN1c1cc(-c2ccnn2C)c2ccnc(-c3ccn[nH]3)c2n1 [ELIMUSERTIB] |  | 41 nM | inhibition in vivo at 50 mg/kg [22]: 65% |

Further lines, with some results ahead:

| IC50 [1] | IC50 [2] | SMILES | further results |
| --- | --- | --- | --- |
| 19.2 nM | 694 nM | CC(O)c1csc2c(N3CCOC[C@H]3C)nc(-c3ccnc4[nH]ccc34)nc12 (stereo partly specified) |  |
| 1 nM | 64 nM | C[C@@H]1COCCN1c1nc(-n2c(N)nc3ccccc32)nc2c(S(C)(=O)=O)csc12 | Cmax [3]: 994 ng/mL; Cmax [4]: 698 ng/mL; MRT inf [5]: 10.8 min; AUC(0-t) at 24 h [6]: 735 ng·h/mL; Tmax [7]: 4.8 min; AUC(0-inf) [8]: 226 ng·h/mL; AUC(0-inf) [9]: 741 ng·h/mL; Vd [10]: 0.827 L/kg; clearance [11]: 74.9 mL/min/kg; MRT last at 24 h [12]: 61.8 min; half-life [13]: 7.8 min; MRT inf [14]: 65.4 min; MRT last at 24 h [15]: 9.6 min; C0 at 24 h [16]: 1080 ng/mL; half-life [17]: 74.4 min; Tmax [18]: 15 min; AUC(0-t) at 24 h [19]: 221 ng·h/mL; bioavailability [20]: 32.8% |
| 6.2 nM | 371 nM | CCP(=O)(CC)c1csc2c(N3CCOC[C@H]3C)nc(-n3c(NC)nc4ccccc43)nc12 |  |
| 5 nM | 437 nM | C[C@@H]1COCCN1c1nc(-c2c[nH]c3ccccc23)nc2c(S(C)(=O)=O)csc12 |  |
| 3.6 nM | 119 nM | C[C@@H]1COCCN1c1nc(-c2cc(Cl)cc3[nH]ccc23)nc2c(S(C)(=O)=O)csc12 |  |
| 123 nM | > 10000 nM | C[C@@H]1COCCN1c1nc(-n2c(=O)[nH]c3ccccc32)nc2c(S(C)(=O)=O)csc12 |  |
| 13.2 nM | 125 nM | CC(=O)Nc1nc2ccccc2n1-c1nc(N2CCOC[C@H]2C)c2scc(S(C)(=O)=O)c2n1 |  |
| 3.7 nM | 360 nM | C[C@@H]1COCCN1c1nc(-n2c(N)nc3ccc(F)cc32)nc2c(S(C)(=O)=O)csc12 |  |
| 7.9 nM | 221 nM | C[C@@H]1COCCN1c1nc(-c2ccnc3[nH]ccc23)nc2c(C(C)(C)O)csc12 |  |
| 4.7 nM | 151 nM | C[C@@H]1COCCN1c1nc(-c2c(F)ncc3[nH]ccc23)nc2c(S(C)(=O)=O)csc12 |  |
| 1.2 nM | 73 nM | C[C@@H]1COCCN1c1nc(-n2c(N)nc3cc(F)ccc32)nc2c(S(C)(=O)=O)csc12 |  |
| 3.1 nM | 259 nM | C[C@@H]1COCCN1c1nc(-c2cc(F)cc3[nH]ccc23)nc2c(S(C)(=O)=O)csc12 |  |
| 17.8 nM | 3340 nM | C[C@@H]1COCCN1c1nc(-c2ccnc3[nH]ccc23)nc2ccsc12 |  |
| 3.8 nM | 657 nM | CCc1nc2ccccc2n1-c1nc(N2CCOC[C@H]2C)c2scc(S(C)(=O)=O)c2n1 |  |
| 5.5 nM | 117 nM | CNc1nc2ccccc2n1-c1nc(N2CCOC[C@H]2C)c2scc(S(C)(=N)=O)c2n1 (stereo partly specified) |  |
| 8.5 nM | 264 nM | CNc1nc2ccccc2n1-c1nc(N2CCOC[C@H]2C)c2scc([S+](C)[O-])c2n1 (stereo partly specified) |  |
| 31.5 nM | 370 nM | C[C@@H]1COCCN1c1nc(-c2ccnc3[nH]ccc23)nc2c(C(N)=O)csc12 |  |
| 4.5 nM | 89 nM | CCS(=O)(=O)c1csc2c(N3CCOC[C@H]3C)nc(-n3c(NC)nc4ccccc43)nc12 |  |
| 16.8 nM | 626 nM | CCCS(=O)(=O)c1csc2c(N3CCOC[C@H]3C)nc(-n3c(NC)nc4ccccc43)nc12 |  |
| 47 nM |  | C[C@@H]1COCCN1c1nc(-n2nnc3ccccc32)nc2c(S(C)(=O)=O)csc12 |  |
| 108 nM |  | C=C(C)c1csc2c(N3CCOC[C@H]3C)nc(-c3ccnc4[nH]ccc34)nc12 |  |
| 2.3 nM | 648 nM | C[C@@H]1COCCN1c1nc(-n2cnc3ccccc32)nc2c(S(C)(=O)=O)csc12 |  |
